19 compounds from ChEMBL document CHEMBL1151359, “Effects of Tetracyclic and Pentacyclic Triterpenoids on Growth of Phytophthora cactorum” (1981) can be followed below.

The source made the active and inactive calls. The rule behind the calls is not given here.

Test [1] concerns Phytophthora cactorum. The test can be described thus: Antifungal activity against Phytophthora cactorum at 10 mg/L in liquid culture medium. It counts as functional, organism-based.
The test system of test [2] is Phytophthora cactorum. The test can be described thus: Effect on Phytophthora cactorum growth assessed as colony diameter at 10 mg/L after 6 days in solid culture medium. It counts as functional.
Test [3] deals with Phytophthora cactorum. Put plainly: Growth promotion activity of Phytophthora cactorum assessed as mycelial dry weight at 10 mg/L after 12 days in liquid culture medium. It counts as functional.
Test [4] deals with Phytophthora cactorum. The test can be described thus: Growth promotion activity of Phytophthora cactorum assessed as mycelial dry weight at 10 mg/L after 18 days in liquid culture medium. The test is classed as functional.
Test [5] deals with Phytophthora cactorum. The test can be described thus: Growth promotion activity in Phytophthora cactorum at 10 mg/L in liquid culture medium. It counts as functional, organism-based.

As for `CC(=O)OC(C)(C)/C=C/C(=O)[C@](C)(O)[C@H]1[C@H](O)C[C@@]2(C)[C@@H]3CC=C4[C@@H](CC[C@@H](O)C4(C)C)[C@]3(CO)C(=O)C[C@]12C` [CUCURBITACIN C], the result with Phytophthora cactorum [1] was Active. Further, in the test with Phytophthora cactorum [2], the Activity came to 28 mm.

As to `CC(C)[C@H](C)CC[C@@H](C)[C@H]1CC[C@H]2[C@@H]3CC=C4C[C@@H](O)CC[C@]4(C)[C@H]3CC[C@]12C` [CAMPESTEROL], the Activity in the test on Phytophthora cactorum [3] was 125 mg; with Phytophthora cactorum [4] it was 200 mg.

With `CC(C)=CCC[C@@H](C)[C@H]1CC[C@@]2(C)[C@@H]3CC[C@H]4C(C)(C)[C@@H](O)CC[C@@]45C[C@@]35CC[C@]12C` [CYCLOARTENOL], the Activity in the test on Phytophthora cactorum [2] was determined as 31 mm.

With `C=C(C)[C@@H]1CC[C@]2(CO)CC[C@]3(C)[C@H](CC[C@@H]4[C@@]5(C)CC[C@H](O)C(C)(C)[C@@H]5CC[C@]43C)[C@@H]12` [BETULIN], the Activity in the test on Phytophthora cactorum [2] is reported as 30.5 mm.

With `CC(=O)OC(C)(C)/C=C/C(=O)[C@](C)(O)[C@H]1[C@H](O)C[C@@]2(C)[C@@H]3CC=C4[C@@H](C=C(O)C(=O)C4(C)C)[C@]3(C)C(=O)C[C@]12C`, the outcome with Phytophthora cactorum [1] was Active.

In the case of `C=C(C)[C@@H]1CC[C@]2(C)CC[C@]3(C)[C@H](CC[C@@H]4[C@@]5(C)CC[C@H](O)C(C)(C)[C@@H]5CC[C@]43C)[C@@H]12` [LUPEOL], the Activity in the test on Phytophthora cactorum [2] came out at 29.5 mm.

For `CC(C)=CCC[C@@H](C)[C@H]1CC[C@@]2(C)C3=C(CC[C@]12C)[C@@]1(C)CC[C@H](O)C(C)(C)[C@@H]1CC3` [LANOSTEROL], in the test with Phytophthora cactorum [2], the Activity is recorded as 30.5 mm.

On to `CC(C)(O)/C=C/C(=O)[C@](C)(O)[C@H]1[C@H](O)C[C@@]2(C)[C@@H]3CC=C4[C@@H](C[C@H](O)C(=O)C4(C)C)[C@]3(C)C(=O)C[C@]12C`, for which, in the test on Phytophthora cactorum [1], the outcome was Active.

For `C=C(C)[C@H]1CC[C@]2(C)[C@H]3CC[C@@H]4[C@@]5(C)CCCC(C)(C)[C@@H]5CC[C@@]4(C)[C@]3(C)CC[C@@H]12`, the outcome in the test on Phytophthora cactorum [1] was Active. For the same compound, the Activity in the test on Phytophthora cactorum [2] came out at 30 mm.

As to `C[C@H]1[C@H](C)CC[C@]2(C)CC[C@]3(C)C(=CC[C@@H]4[C@@]5(C)CC[C@H](O)C(C)(C)[C@@H]5CC[C@]43C)[C@H]12`, in the test with Phytophthora cactorum [5], the outcome was Active.

For `CC1(C)CC[C@]2(C)CC[C@]3(C)C(=CC[C@@H]4[C@@]5(C)CC[C@H](O)C(C)(C)[C@@H]5CC[C@]43C)[C@@H]2C1` [beta-AMYRIN], the outcome in the test on Phytophthora cactorum [5] was Active. In addition, the Activity in the test with Phytophthora cactorum [4] was 135 mg; in the test with Phytophthora cactorum [2], 35 mm.

For `C[C@H]1C(=O)CC[C@@H]2[C@]1(C)CC[C@H]1[C@@]2(C)CC[C@@]2(C)[C@@H]3CC(C)(C)CC[C@]3(C)CC[C@]12C`, in the test on Phytophthora cactorum [1], the result was Active.

On to `CC(=O)OC(C)(C)/C=C/C(=O)[C@](C)(O)[C@H]1[C@H](O)C[C@@]2(C)[C@@H]3CC=C4[C@H](C[C@H](O)C(=O)C4(C)C)[C@]3(C)C(=O)C[C@]12C`, for which the result with Phytophthora cactorum [1] was Active.

As for `CC[C@H](CC[C@@H](C)[C@H]1CC[C@H]2[C@@H]3CC=C4C[C@@H](O)CC[C@]4(C)[C@H]3CC[C@]12C)C(C)C` [BETA-SITOSTEROL], the Activity with Phytophthora cactorum [3] came out at 125 mg; in the test on Phytophthora cactorum [4], 200 mg; with Phytophthora cactorum [2], 35 mm.

Turning to `CC1(C)CCC[C@]2(C)[C@H]3CC[C@@H]4[C@@]5(C)CC[C@H](O)C(C)(C)[C@@H]5CC[C@@]4(C)[C@]3(C)CC[C@@H]12` [TETRAHYMANOL], in the test with Phytophthora cactorum [5], the result was Active. For the same compound, the Activity in the test on Phytophthora cactorum [4] came out at 135 mg.

Consider `CC(=O)OC(C)(C)/C=C/C(=O)[C@](C)(O)[C@H]1[C@H](O)C[C@@]2(C)[C@@H]3CC=C4[C@@H](C[C@H](O)C(=O)C4(C)C)[C@]3(CO)C(=O)C[C@]12C`, for which the result in the test on Phytophthora cactorum [1] was Active.

As to `C=C(C)[C@@H]1CC[C@]2(C)CC[C@]3(C)[C@H](CC[C@@H]4[C@@]5(C)CCC(=O)C(C)(C)[C@@H]5CC[C@]43C)[C@@H]12`, the outcome in the test on Phytophthora cactorum [1] was Active.

As to `CC(C)CCC[C@@H](C)[C@H]1CC[C@H]2[C@@H]3CC=C4C[C@@H](O)CC[C@]4(C)[C@H]3CC[C@]12C`, the outcome with Phytophthora cactorum [5] was Active.

With `CC1(C)CC[C@]2(C(=O)O)CC[C@]3(C)C(=CC[C@@H]4[C@@]5(C)CC[C@H](O)C(C)(C)[C@@H]5CC[C@]43C)[C@@H]2C1` [OLEANOLIC_ACID], the Activity in the test with Phytophthora cactorum [2] was 29 mm.
